Measured values from patent US20060045881A1, “Anti-cancer vaccines” (Board of Regents, The University of Texas System, priority 2004, published 2006).
“And” between values parts separate entries of the source, which are not always exact repeats. Equal entries are not always repeated.

Key:
HLA-A2.1 = HLA-A2.1 (Homo sapiens, UniProt P04439, D140Y/D185E/D98H/E176V/E277Q/G131W/G231S/I119V/I121R/I166T/I218V/L300P/L318F/N151K/N90K/P208A/P217A/Q86G/Q94H/R138H/R169H/T345S); assay: HLA-A2.1 surface expression on peptide-coated T2 cells (indirect flow cytometry, BB7.2); type: binding; conditions: compared with T2 without peptide / control influenza peptide
Experimental: Cell lines and peptide binding. T2 cells (American Type Culture Collection, Rockville, Md., USA) were maintained in culture in CM plus 10% FBS (Atlanta Biologicals Inc., Norcross, Ga., USA). PR1 peptide was incubated at increasing concentrations for 18 hr at 37° C. with 100 μg/ml β2m (Sigma-Aldrich) with 10^6 T2 cells in 1 ml CM. Cells were washed twice with CM, stained with BB7.2 Ab, washed again, and then stained with FITC-labeled secondary Ab (Becton Dickinson Immunocytometry Systems, San Jose, Calif., USA).
T2 cells are a human lymphocyte line that lacks TAP1 and TAP2 genes and therefore cannot present endogenous MHC class I restricted antigens. If the peptide effectively bound HLA-A2.1, it stabilized the complex with (β2-microglobulin and increased HLA-A2.1 surface expression, which could be measured using flow cytometry. An HLA-A2.1 specific monoclonal antibody (BB7.2, ATCC, Rockville, Md.) followed by a FITC-labeled secondary antibody (CalTag Laboratories, Burlingame, Calif.) was used to measure surface expression of HLA-A2.1.
T2 cells are a human lymphocyte line that lacks TAP1 and 2 genes and cannot therefore present endogenous MHC class I restricted antigens. If the peptide effectively bound HLA-A2.1, it stabilized the complex with β2-microglobulin and increased HLA-A2.1 surface expression, which could be measured using flow cytometry. An HLA-A2.1 specific monoclonal antibody (BB7.2, ATCC, Rockville, Md.) followed by a FITC-labeled secondary antibody (CALTAG) was used to measure surface expression of HLA-A2.1. […] The labeled heterotrimer complex was separated from unincorporated β2-microglobulin by high-performance liquid

T2 cells = assay: 4-hr cytotoxicity of peptide-elicited CTL lines against peptide-loaded T2 cells
Experimental: CTL cytotoxicity assay. A semiautomated minicytotoxicity assay was used to determine specific lysis as described previously (Molldrem, 2000; Molldrem et al., 1996). Briefly, effector cells were prepared in doubling dilutions from 6×10^3 to 25×10^3 cells/well and were plated in 40 μl, 60-well Terasaki trays (Robbins Scientific, Sunnyvale, Calif., USA) with six replicates per dilution. Target cells (T2 cells, marrow-derived leukemic cells, or BM from a healthy donor) at a concentration of 2×10^6 cells/ml were stained with 10 μg/ml of Calcein-AM (Molecular Probes Inc.) for 60 min at 37° C. After washing three times in CM plus 10% AB, target cells were resuspended at 10^5 cells/ml, and 10^3 target cells in 10 μl medium were added to each well containing effector cells. Wells with target cells alone and medium alone were used for maximum (max) and minimum (min.) fluorescence emission, respectively. After 4 hr incubation at 37° C. in 5% CO2, 5 μl FluoroQuench (One Lambda Inc., Canoga Park, Calif., USA) was added to each well, and the trays were centrifuged for 1 min at 60 g before measurement of fluorescence using an automated CytoFluor II plate reader (PerSeptive Biosystems, Framingham, Mass., USA). The percentage of lysis was calculated as follows: % lysis={1−[(mean experimental mission−mean min.)/(mean max−mean min.)]}×100%.
Induction of Primary CTL responses to peptides. These peptides were next used to stimulate T cells specific for peptide-coated targets. PBMC from a normal healthy donor heterozygous for HL-A2.1 were stimulated with peptide-pulsed T2 cells. […] Briefly, T2 cells (which co-express the costimulatory molecule B7.1) were washed 3 times in serum-free RPMI culture media supplemented with penicillin/streptomycin and glutamine (CM) and incubated with peptide at 20 μg/mL for 2 hr in CM. The peptide loaded T2 cells were then irradiated with 7500 cGy, washed once, and suspended with freshly isolated PBMC at a 1:1 ratio in CM supplemented with 10% human serum (HS) (Sigma, St. Louis, Mo.). […]

PR1-CTL = assay: Annexin V apoptosis of PR1-CTL challenged with peptide-pulsed T2 cells; type: cell-based, human; conditions: for apoptosis (Annexin V) of high avidity PR1-CTL: T2 pulsed with 20 μM peptide, 16 to 18 hr
Excerpt: High PR1 concentration and proteinase 3-overexpressing CML cells induce apoptosis of high avidity PR1-specific CTL. […] All high avidity PR1-CTL exposed to high dose PR1 were dead after 36 to 48 hr of co-culture.

[1] = test system: human myeloid leukemia cells; assay: Cytotoxicity of peptide-elicited CTL against HLA-A2.1-positive myeloid leukemia marrow cells; type: cell-based; conditions: for lysis of HLA-A2.1-positive AML marrow cells by peptide-specific CTL: MY2: E:T 5:1
Excerpt: (§1) PR1 specific CTL preferentially lyse human myeloid leukemia cells. It was next determined whether the PR1-specific CTL line was capable of lysing allogeneic human myeloid leukemia cells from HLA-A2.1 positive individuals. As controls, two cell lines expressing low levels of Pr3 were used: HLA-A2.1 transfected K562 cells and U937 cell line which lack HLA-A2.1 and would therefore be incapable of presenting peptides in an HLA-A2.1-restricted manner. Cryopreserved bone marrow cells from patients P1-P4, and marrow cells from a healthy normal volunteer (D2, a bone marrow donor for an allogeneic bone marrow transplant performed on patient P3) were thawed and used as targets for the PR1-specific CTL line.
(§2) It was next determined whether the MY2 and MY4-specific CTL lines were capable of lysing allogeneic human myeloid leukemia cells from HLA-A2.1 positive individuals. The targets were BM cells from pre-transplant HLA-A2.1-positive AML patients. As controls, BM cells from HLA-A2.1-negative AML patients, BM from HLA-A2.1-positive healthy donors and two cell lines expressing low levels of MPO were used: HLA-A2.1 transfected K562 cells and the U937 cell line which lacks HLA-A2.1 and would therefore be incapable of presenting peptides in an HLA-A2.1-restricted manner.

[2] = test system: marrow cells from a normal healthy donor; assay: Cytotoxicity of peptide-elicited CTL against normal donor marrow cells; type: cell-based, human
Excerpt: as §1, §2

AML CFU-GM = assay: CFU-GM colony inhibition by MY4-pulsed CTL, AML marrow; type: cell-based, human; conditions: patient P1 (M2-AML) and P2 (M4-AML), respectively; 13 day MY4-pulsed CTL
Excerpt: (§3) In contrast there was no inhibition of CFUGM from normal marrow, D1 and D2, the corresponding HLA identical marrow donors for P1 and P2.

[3] = test system: CFU-GM from normal marrow; assay: CFU-GM colony inhibition by MY4-pulsed CTL, normal marrow; type: cell-based, human; conditions: D1 and D2, HLA identical marrow donors
Excerpt: as §3

[4] = test system: HMy2.CIR-A2 cells transfected with Pr3; assay: PR1-specific CTL lysis of Pr3-transfected HMy2.CIR-A2 cells; type: cell-based, human; conditions: clone 1.4; E:T 25:1
Experimental: Expression of proteinase 3 following transfection into and HMy2.CIR and HMy2.CIR-A2 cells. […] The parental HMy2.CIR cell line, which has lost expression of HLA-A and -B, and the HLA-A2.1-transfected HMy2.CIR cells (named HMy2.CIR-A2), were both transfected with Pr3 as described below.
Ten million HMy2.CIR (ATCC, Rockville, Md.), or 10 million HMy2.CIR-A2 cells were each washed in phosphate buffered saline (PBS) and re-suspended in 0.8 mL of ice-cold PBS and put into an electroporation cuvette with 20 μg of circular plasmid DNA. The mixture was exposed to an electric pulse of 320 volts at 960 microF and incubated on ice for 10 min. Cells were then added to 10 mL of pre-warmed CM. The following day, the CM was replaced. On day 2, cells were grown under selection conditions using 200 μg/mL Zeocin. Following one week of selection, the cells were subcloned by limiting dilution under Zeocin selection, and 6 clones were isolated.
HMy.2.CIR-A2 cells transfected with Pr3 are susceptible to lysis by PR1 specific CTL. It was next determined whether the transfected HMy2.CIR-A2 cells could be lysed by PR1 specific CTL. The PR1 specific CTL were elicited in the manner previously described, and after 22 days in culture were combined at a 25:1 E:T ratio with HMy2.CIR-A2 transfected either with the Pr3-containing vector pRTZ.2, or the empty vector containing the reporter gene, CAT. […]

[5] = test system: PBMC from HLA-A2.1+ healthy donors; assay: In vitro elicitation of PR1-CTL from PBMC with peptide-pulsed APC, PR1/HLA-A2 tetramer staining; type: cell-based, human
Experimental: Peptide-specific CTLs were expanded in culture using methods described previously (Molldrem et al., 1996; Molldrem et al., 1997). Briefly, PBMCs from healthy donors or CML patients were stimulated in vitro with PR1, pp65, or flu peptides. T2 cells were washed three times in serum-free CM and incubated with peptide at the indicated peptide concentration for 2 hr in CM.
Ab's and flow cytometry. For routine surface-antigen staining, 10^6 PBMCs were incubated at 4° C. with Ab. After washing, cells were incubated with FITC-labeled CD8 (Caltag Laboratories Inc., Burlingame, Calif., USA) for 30 min on ice. Surface expression of TCR was determined with FITC-labeled TCR-αβ (PharMingen, San Diego, Calif., USA), and annexin V using FITC-labeled Ab (Caltag Laboratories). Proteinase 3 expression was determined with primary mouse Ab (Accurate Chemical & Scientific Corp., Westbury, N.Y., USA). Mouse monoclonal anti-HLA-A2.1 Ab BB7.2 and anti-HLA-ABC w6/32 were derived from culture supernatants of a hybridoma cell lines (American Tissue Culture Collection). Cells were washed and fixed in 2% paraformaldehyde and analyzed on a FACScan (Becton Dickinson Immunocytometry Systems), and data were analyzed using CELLQuest (Becton Dickinson Immunocytometry Systems) software. The minimum concentration of tetramer necessary to show distinctly different avidities was determined in titration experiments. Each tetramer reagent was titered individually and used at the optimal concentration. The tetramer concentration showing the maximal separation of fluorescence intensity of CTL populations was generally 10-20 μg/ml. Propidium iodide (PI) (Becton Dickinson Immunocytometry Systems) staining (1 μg/ml) was performed to exclude dead cells, according to the manufacturer's instructions. A “dump” channel was used with tetramer staining to eliminate monocytes and B lymphocytes with nonspecific binding to the HLA-A2 heavy chain by staining with PerCP-labeled CD14 and CD19 (both Becton Dickinson Immunocytometry Systems).
PR1-specific CTL with high and low TCR avidity can be elicited from healthy donors. To determine whether high and low avidity PR1-CTL are present in healthy donors, a modified tetramer staining technique (Savage et al., 1999) using limiting tetramer concentration to visualize high and low fluorescence intensity tetramer+ cells, which correlates with high and low TCR avidity was utilized. Sufficient PR1-CTL was elicited by stimulating PBMC with increasing peptide concentrations for 28 days. PBMC from an HLA-A2.1+ healthy donor stimulated weekly for 28 days with 0.2 μM PR1 elicited 1.3% high intensity PR1/HLA-A2 tetramer-staining CTL with a median channel of fluorescence (MCF) of 293 (high avidity PR1-CTL), while stimulation with 20 μM PR1 produced 3.1% low avidity (MCF=93) PR1-specific CTL (FIG. 11A). […] Cultures stimulated with 2 μM PR1 produced fewer PR1-specific CTL with mixed TCR avidities, while stimulation with ≦0.02 μM PR1 induced <0.1% PR1-CTL. […] To further verify that tetramer staining intensity correlates with TCR avidity, the kinetics of tetramer staining decay was determined using previously described techniques (Savage et al., 1999).

[6] = test system: HLA-A2+ patients with CML, AML or MDS; assay: Phase I/II PR1 peptide vaccine study in myeloid leukemia patients; type: in vivo, human
Experimental: PR1 peptide is injected subcutaneously in incomplete Freund's adjuvant every 3 weeks for 3 injections to induce a PR1 specific host response against the myeloid leukemia. Both in Phase I and in Phase II, patients will also be evaluated for signs of immune reactivity. […] The amount of Proteinase 3 expression in the leukemia cells is studied by cytoplasmic flow cytometry analysis. Any clinical responses (defined by standard criteria as hematological and/or cytogenetic responses) will be correlated with the in vitro testing. Vaccination at 3 dose levels of peptide with a fixed amount of IFA will be conducted, and stopping criteria will be guided by established toxicity criteria.
HLA-A2^+ patients with CML (interferon-resistant or relapsed after BMT), AML (smoldering relapse or ≧2nd CR) or MDS (RAEB or RAEBt) with no detectable antibodies to proteinase 3 (no detectable cANCA) were eligible. Patients that relapsed after BMT or those ineligible for BMT were also eligible for study. […]
Secondarily, clinical responses were assessed by standard criteria with bone marrow biopsy, cytogenetic studies (standard chromosome banding) and molecular studies (PCR for bcr-abl or other known abnormalities such as t(15;17), inv16, etc.) 3 weeks after the last vaccination. Patients were seen and evaluated in clinic every 3 weeks during the study period. […]

[7] = T2 loaded with 1.0 μg/mL of same peptide, varying E:T

RLFPDFFTRV [PR2]
surface HLA-A2.1 expression on peptide-pulsed T2 cells (in words) (HLA-A2.1): increased surface HLA-A2.1 expression | specific lysis of peptide-loaded T2 cells by CTL line generated against the peptide (T2 cells; [7]): did not demonstrate any significant cytotoxicity

Influenza nucleoprotein: control influenza peptide, Influenza B nucleoprotein (aa 85-94), known high binding affinity to HLA-A2.1 (KLGEFYNQMM) [reference compound]
apoptosis (Annexin V) of high avidity PR1-CTL (PR1-CTL): no apoptosis was observed

KLLLALAGL [MY2]
lysis of HLA-A2.1-positive AML marrow cells by peptide-specific CTL [1]: readily lysed | lysis of HLA-A2.1-positive normal healthy donor marrow cells by MY2-specific CTL ([2]; E:T 20:1): 43% | specific lysis of peptide-loaded T2 cells by CTL line generated against the peptide (T2 cells; T2 loaded with 2.0 μg/mL of same peptide): high specific lysis

RLFEQVMRI [MY4]
lysis of HLA-A2.1-positive AML marrow cells by peptide-specific CTL [1]: killed AML cells | specific lysis of HLA-A2+ normal BMC by peptide-specific CTL [2]: not normal cells | inhibition of CFU-GM (AML CFU-GM): 63% and 34% | inhibition of CFU-GM from normal marrow [3]: no inhibition

KLNDVLLIQL [PR7V]
surface HLA-A2.1 expression on peptide-pulsed T2 cells (in words) (HLA-A2.1): strong peptide binding

VLQELNVTV [PR1]
surface HLA-A2.1 expression on peptide-pulsed T2 cells (in words) (HLA-A2.1): increased surface HLA-A2.1 expression | specific lysis of CML blast crisis marrow cells by PR1-specific CTL ([1]; CML-BC, E:T 25:1): 73% | lysis of CML #3 BM cells by patient CTL elicited with 0.2 μM PR1 ([1]; CTL from patients CML #1 and CML #2, respectively, E:T 20:1): 24%±5% and 33%±6% | specific lysis of CML marrow cells by PR1-specific CTL ([1]; P1, CML in chronic phase, E:T 6:1): 53% | lysis of normal donor marrow cells by PR1-specific CTL ([2]; donor D2): < 20% | specific lysis of Pr3-transfected cells by PR1-specific CTL [4]: 36% | % of bulk culture CTL double-positive (CD8, PR1-tetramer) ([5]; 32 day-old PR1-stimulated CTL culture): 4.3% | % PR1/HLA-A2 tetramer-staining CTL ([5]; PBMC stimulated weekly 28 days with 0.2 μM PR1 (high avidity)): 1.3% | % of CTL line specific for PR1 (PR1-tetramer/CD8) ([5]; day 17 CTL line elicited against PR1): 2.4% | % PR1/HLA-A2 tetramer-staining CTL ([5]; stimulated with 20 μM PR1 (low avidity)): 3.1% | % PR1-CTL induced ([5]; stimulation with ≦0.02 μM PR1): < 0.1% | apoptosis (Annexin V) of high avidity PR1-CTL (PR1-CTL): underwent apoptosis | apoptosis (Annexin V) of low avidity PR1-CTL (PR1-CTL; high or low concentrations of PR1): did not undergo apoptosis | patients with complete remission ([6]; 9 patients (1 AML and 1 CML)): 2 patients | patients in whom PR1-specific CTL immunity was elicited (tetramer staining) ([6]; 9 patients, 0.25, 0.5 or 1.0 mg every 3 weeks x3): 6 of 9 | specific lysis of peptide-loaded T2 cells by CTL line generated against the peptide (T2 cells; [7]): high specific lysis

KLNDILLIQL [PR7I]
surface HLA-A2.1 expression on peptide-pulsed T2 cells (in words) (HLA-A2.1): strong peptide binding
